Laboratory results taken from patent US11026944B2, “Compositions and methods for treating insomnia” (Eisai R&D Management Co., Ltd., priority 2014, dated 2021).

System: subjects with primary insomnia
Experiment: 001 Study Part B: polysomnography (LPS, WASO, SE)
Format: in vivo, human
From the text: For Part B, 58 otherwise healthy subjects with primary insomnia were randomized across three cohorts, and stratified by gender. Part B also included an active control (zolpidem) and matching placebo. In each cohort, there were approximately 12 subjects in the compound A/zolpidem-matched placebo group, approximately four subjects in the zolpidem/compound A-matched placebo group, and approximately four subjects in the compound A-matched placebo/zolpidem-matched placebo group. Part B dosing occurred in the evening, 30 minutes prior to the sleep period. The starting dose for Part B was 3 dose levels that determined to be safe and well tolerated in Part A. Subsequent dose levels in Part B were determined based on the PD results of the first cohort in Part B and PD and safety results from at least 3 completed higher dose cohorts in Part A. Each cohort in Part B was divided into at least two groups, with dosing of each group staggered by a minimum of 2 days.
After the initial Screening visit, eligible subjects were scheduled to return to the clinic for 2 days during the Screening Period to conduct screening/baseline PSGs. These two days occurred at least 3 days after the initial Screening visit and within a window from Day-7 to Day-6 (±2 days). The first PSG was used to screen for sleep apnea and periodic limb movements in sleep (PLMS) and serve as the first baseline PSG. The second PSG was used as the second baseline PSG. Specific PSG variables were used to determine whether subjects met PSG inclusion criteria, and the average of PSG variables from these two PSGs was used as Baseline for this PD measure. Subjects who had met PSG inclusion criteria returned to the clinic on Day-1 for additional baseline procedures and randomization. Subjects were not allowed to nap on Day 1. On the evening of Day 1, after fasting a minimum of 3 hours, study drug was administered 30 minutes prior to the subject's habitual bedtime (lights-out), as calculated from the sleep diary for the first PSG during the Screening Period. PK blood samples were collected at prespecified timepoints, and PD assessments were performed. PSG was recorded on Day 1, postdose. Subjects were administered additional PD assessments each morning on Day 1 through Day 6. These assessments included the KSS, DSST, and PVT, in order to assess daytime sleepiness, level of alertness, and ability to concentrate. The KSS and DSST were also administered 5 minutes predose and 25 minutes postdose on Day 1, just prior to lights-out. Waketime Questionnaires were administered after the PD assessments within 15 minutes of lights-on, on Day 1 to Day 6. Time and duration of naps was recorded on Day 2.
In addition, PSG was performed during the Screening Period at Days-7 and -6 (±2 days), and postdose on Day 1. An 8-hour diagnostic PSG consisting of electroencephalogram (EEG), electrooculogram (EOG), electromyogram (EMG), ECGs, leg electrodes, and measures of respiratory function (airflow, respiratory effort, and oxygen saturation) were performed starting at the subject's habitual bedtime as determined from the sleep diary for the 3 nights immediately prior to the first PSG on Day-7 (±2 days). PSG variables from this night were used to screen for sleep apnea and PLMS. On Day-6 (±2) and postdose on Day1, standard PSGs (i.e., not including leg electrodes or measures of respiratory function other than oxygen saturation) were performed. Specified PSG variables from these two PSGs conducted during the Screening Period were used to determine whether subjects met PSG inclusion criteria. The average of PSG variables from these two PSGs conducted during the Screening Period were used as baseline PSG values. The key PD parameters such as PSG LPS, TST, SE, and WASO have been obtained from all PSG recordings.

In the case of `Cc1ncc(OC[C@@]2(c3cccc(F)c3)C[C@H]2C(=O)Nc2ccc(F)cn2)c(C)n1` [Compound A, (1R,2 S)-2-(((2,4-dimethylpyrimidin-5-yl)oxy)methyl)-2-(3-fluorophenyl)-N-(5-fluoropyridin-2-yl) cyclopropanecarboxamide], the “LPS reduction relative to Baseline” value (single 2.5 mg evening dose) is reported as “approximately 30 minutes”, the “WASO reduction relative to Baseline” value (single 2.5 mg evening dose) is reported as “approximately 30 minutes” and the “LPS reduction relative to Baseline” value (single 10 mg evening dose) is reported as “approximately 30 minutes”. The “WASO reduction relative to Baseline” value (single 10 mg evening dose) was “approximately 30 minutes”, the “LPS reduction relative to Baseline” value (single 25 mg evening dose) was “approximately 45 minutes” and the “WASO reduction relative to Baseline” value (single 25 mg evening dose) was “more than 45 minutes”.
